Source: ChEMBL document CHEMBL5036330, “Discovery of 8,9-seco-ent-Kaurane Diterpenoids as Potential Leads for the Treatment of Triple-Negative Breast Cancer” (J Med Chem, 2021)

Experiments:
[1] = test system: MDA-MB-468; test: Cytotoxicity against human MDA-MB-468 cells assessed as reduction in cell viability incubated for 96 hrs by MTT method; type: functional, cell-based; conditions: MDA-MB-468, 96 h
[2] = test system: MDA-MB-231; test: Cytotoxicity against human MDA-MB-231 cells assessed as reduction in cell viability incubated for 96 hrs by MTT method; type: functional, cell-based; conditions: MDA-MB-231, 96 h
[3] = test system: MCF7; test: Cytotoxicity against human MCF7 cells assessed as reduction in cell viability incubated for 96 hrs by MTT method; type: functional, cell-based; conditions: MCF7, 96 h
[4] = test system: MCF-10A; test: Cytotoxicity against human MCF-10A cells assessed as reduction in cell viability incubated for 96 hrs by MTT method; type: cell-based
[5] = test system: HEK293; test: Cytotoxicity against HEK-293 cells assessed as reduction in cell viability incubated for 96 hrs by MTT method; type: cell-based; conditions: Homo sapiens, HEK293, 96 h
[6] = test system: L02; test: Cytotoxicity against human L02 cells assessed as reduction in cell viability incubated for 96 hrs by MTT method; type: cell-based; conditions: L02, 96 h

`C=C1C(=O)C2=C[C@H]1CCC(=O)[C@]1(C)C(=O)CCC(C)(C)[C@H]1C[C@H]2OC(=O)c1ccccc1` gave an IC50 [1] of 2070 nM, an IC50 [2] of 2000 nM and an IC50 [3] of 882 nM.

For `C=C1C(=O)C2=C[C@H]1CCC(=O)[C@]1(C)[C@H](O)CCC(C)(C)[C@H]1C[C@H]2OC(=O)CC`, the IC50 [1] was 893 nM, the IC50 [2] was 983 nM and the IC50 [3] was 999 nM.

Work on `C[C@H]1C(=O)C2=C[C@H]1CCC(=O)[C@]1(C)[C@H](O)CCC(C)(C)[C@H]1C[C@H]2O` yielded an IC50 [1] greater than 5000 nM, an IC50 [2] greater than 5000 nM and an IC50 [3] greater than 5000 nM.

`C=C1C(=O)C2=C[C@H]1CCC(=O)[C@]1(C)C(=O)CCC(C)(C)[C@H]1C[C@H]2OC(C)=O` showed an IC50 [1] of 215 nM, an IC50 [2] of 28.7 nM and an IC50 [3] of 538 nM.

Molecule `C=C1C(=O)C2=C[C@H]1CCC(=O)[C@@]1(C)[C@H](C[C@H]2OC(C)=O)C(C)(C)CC[C@H]1OC(C)=O` has an IC50 [1] of 762 nM, an IC50 [2] of 978 nM and an IC50 [3] of 226 nM.

`C=C1C(=O)O[C@H]2C3=C(CC[C@@H]12)[C@@]1(C)[C@H](CC3=O)C(C)(C)CC[C@H]1OC(C)=O` gave an IC50 [1] of 842 nM, an IC50 [2] of 1770 nM and an IC50 [3] of 1240 nM.

`C=C1C(=O)C2=C[C@H]1CCC(=O)[C@@]1(C)[C@H](C[C@H]2O)C(C)(C)CC[C@H]1OC(C)=O` gave an IC50 [1] of 228 nM, an IC50 [2] of 177 nM and an IC50 [3] of 120 nM.

Molecule `C=C1C(=O)C2=C[C@H]1CCC(=O)[C@]1(C)[C@H](O)CCC(C)(C)[C@H]1C[C@H]2OC` has an IC50 [1] of 121 nM, an IC50 [2] of 185 nM and an IC50 [3] of 215 nM.

With `C=C1C(=O)C2=C[C@H]1CCC(=O)[C@]1(C)[C@H](O)CCC(C)(C)[C@H]1C[C@H]2OC(C)=O` the IC50 [1] was 257 nM, the IC50 [2] was 561 nM and the IC50 [3] was 587 nM.

Molecule `C=C1C(=O)C2=C[C@H]1CCC(=O)[C@]1(C)C(=O)CCC(C)(C)[C@H]1C[C@H]2OC(=O)CCl` has an IC50 [1] of 345 nM, an IC50 [2] of 1610 nM and an IC50 [3] of 505 nM.

Molecule `C=C1C(=O)C2=C[C@H]1CCC(=O)[C@]1(C)[C@H](O)CCC(C)(C)[C@H]1C[C@H]2OC(=O)c1ccccc1` has an IC50 [1] of 301 nM, an IC50 [2] of 466 nM and an IC50 [3] of 999 nM.

In the case of `COc1cccc2c1C(=O)c1c(O)c3c(c(O)c1C2=O)C[C@@](O)(C(=O)CO)C[C@@H]3O[C@H]1C[C@H](N)[C@H](O)[C@H](C)O1` [DOXORUBICIN], the IC50 [1] is reported as 52.1 nM, the IC50 [4] is reported as 33 nM and the IC50 [2] is reported as 80.5 nM. For the same molecule, the IC50 [5] was 106 nM and the IC50 [6] was 256 nM.

`C[C@H]1C(=O)[C@]23C[C@H]1CC[C@@]2(O)[C@]1(C)[C@H](O)CCC(C)(C)[C@H]1C[C@H]3O` showed an IC50 [1] greater than 5000 nM, an IC50 [2] greater than 5000 nM and an IC50 [3] greater than 5000 nM.

With `CC1(C)C(=O)CC[C@]2(C)[C@@H]1CC[C@@]13C[C@@H](CC[C@H]12)[C@@H](CO)C3` the IC50 [1] was greater than 5000 nM, the IC50 [2] was greater than 5000 nM and the IC50 [3] was greater than 5000 nM.

Molecule `C=C(C)CC(=O)O[C@@H]1C[C@@H]2C(C)(C)CC[C@@H](O)[C@@]2(C)C(=O)CC[C@@H]2C=C1C(=O)C2=C` has an IC50 [1] of 890 nM, an IC50 [2] of 564 nM and an IC50 [3] of 1190 nM.

`C=C1C(=O)C2=C[C@H]1CCC(=O)[C@@]1(C)[C@H](C[C@H]2OC(=O)CCl)C(C)(C)CC[C@H]1OC(C)=O` was tested, and the IC50 [1] was 643 nM, the IC50 [2] was 1080 nM and the IC50 [3] was 235 nM.

Work on `CC1(C)C(=O)CC[C@]2(C)[C@@H]1CC[C@@]13C[C@@H](CC[C@H]12)[C@@](O)(CO)C3` yielded an IC50 [1] greater than 5000 nM, an IC50 [2] greater than 5000 nM and an IC50 [3] greater than 5000 nM.

Work on `C=CC(=O)O[C@@H]1C[C@@H]2C(C)(C)CC[C@@H](O)[C@@]2(C)C(=O)CC[C@@H]2C=C1C(=O)C2=C` yielded an IC50 [1] of 382 nM, an IC50 [2] of 166 nM and an IC50 [3] of 1220 nM.

For `C=C1C(=O)C2=C[C@H]1CCC(=O)[C@]1(C)C(=O)CCC(C)(C)[C@H]1C[C@H]2O`, the IC50 [1] was 194 nM, the IC50 [2] was 124 nM and the IC50 [3] was 379 nM.

Work on `C=C1C(=O)[C@]23O[C@H]2[C@H]1CCC(=O)[C@]1(C)[C@H](O)CCC(C)(C)[C@H]1C[C@H]3O` yielded an IC50 [1] of 319 nM, an IC50 [2] of 473 nM and an IC50 [3] of 1600 nM.

`CC1(C)C(=O)CC[C@]2(C)[C@@H]1CC[C@]13C[C@H]4C[C@H](O[C@@]4(C)C1)[C@H]32` showed an IC50 [1] greater than 5000 nM, an IC50 [2] greater than 5000 nM and an IC50 [3] greater than 5000 nM.

Work on `C=C1C(=O)C2=C[C@H]1CCC(=O)[C@]1(C)[C@H](O)CCC(C)(C)[C@H]1C[C@H]2OC(=O)CCl` yielded an IC50 [1] of 909 nM, an IC50 [2] of 551 nM and an IC50 [3] of 1090 nM.

In the case of `C=C1C(=O)C2=C[C@H]1CCC(=O)[C@@]1(C)[C@H](C[C@H]2OCC)C(C)(C)CC[C@H]1OC(C)=O`, the IC50 [1] is reported as 236 nM, the IC50 [2] is reported as 677 nM and the IC50 [3] is reported as 266 nM.

In the case of `C=CC(=O)O[C@@H]1C[C@@H]2C(C)(C)CC[C@@H](OC(=O)C=C)[C@@]2(C)C(=O)CC[C@@H]2C=C1C(=O)C2=C`, the IC50 [1] is reported as 395 nM, the IC50 [2] is reported as 237 nM and the IC50 [3] is reported as 1120 nM.

In the case of `C=C1C(=O)[C@@]23[C@H](O)C[C@@H]4C(C)(C)CC[C@@H](O)[C@@]4(C)[C@]2(O)CC[C@@H]1[C@H]3O`, the IC50 [1] is reported as 116 nM, the IC50 [2] is reported as 153 nM and the IC50 [3] is reported as 248 nM.
